The target of one assay is NS3/NS4 complexes (Hepatitis C virus genotype 1a, UniProt P27958). Kind of assay: NS3/NS4 inhibition activity (IC50). The format is biochemical. The following applies: Table 2, read-out: IC50. From the text:
NS3-NS4 inhibition activity can be determined using known assay methods. For example, NS3/NS4 complexes may be formed and inhibitory concentrations of test compounds determined as described in U.S. Patent Application Publication Number 2007/0054842 paragraph numbers 1497-1509, which is incorporated herein by reference in its entirety. Similarly, hepatitis C replicon EC50 may be determined using known assay methods such as described in U.S. Patent Application Publication Number 2007/0054842 paragraph numbers 1510-1515. Assays may be conducted at ambient temperature (23° C.) in assay buffer containing 50 mM Tris-HCl, pH 7.5, 15% glycerol, 0.6 mM Lauryldimethylamine Oxide (LDAO), 25 μM NS4A peptide, and 10 mM Dithiothreitol (DTT).

Another assay has as its system hepatitis C replicon. Briefly: hepatitis C replicon EC50. The format is cell-based. As to conditions: Hepatitis C virus. An excerpt:
NS3-NS4 inhibition activity can be determined using known assay methods.

[1] abbreviates: Table 2, hepatitis C replicon, read-out: EC50.

Where two headings read alike, the source gives them in different places. Bounds are passed on as bounds.

We go through 35 compounds from patent US8048862B2, “Macrocyclic inhibitors of hepatitis C virus replication” (priority 2008, dated 2011).

Chain of NS3/NS4 complexes (P27958 1027-1657): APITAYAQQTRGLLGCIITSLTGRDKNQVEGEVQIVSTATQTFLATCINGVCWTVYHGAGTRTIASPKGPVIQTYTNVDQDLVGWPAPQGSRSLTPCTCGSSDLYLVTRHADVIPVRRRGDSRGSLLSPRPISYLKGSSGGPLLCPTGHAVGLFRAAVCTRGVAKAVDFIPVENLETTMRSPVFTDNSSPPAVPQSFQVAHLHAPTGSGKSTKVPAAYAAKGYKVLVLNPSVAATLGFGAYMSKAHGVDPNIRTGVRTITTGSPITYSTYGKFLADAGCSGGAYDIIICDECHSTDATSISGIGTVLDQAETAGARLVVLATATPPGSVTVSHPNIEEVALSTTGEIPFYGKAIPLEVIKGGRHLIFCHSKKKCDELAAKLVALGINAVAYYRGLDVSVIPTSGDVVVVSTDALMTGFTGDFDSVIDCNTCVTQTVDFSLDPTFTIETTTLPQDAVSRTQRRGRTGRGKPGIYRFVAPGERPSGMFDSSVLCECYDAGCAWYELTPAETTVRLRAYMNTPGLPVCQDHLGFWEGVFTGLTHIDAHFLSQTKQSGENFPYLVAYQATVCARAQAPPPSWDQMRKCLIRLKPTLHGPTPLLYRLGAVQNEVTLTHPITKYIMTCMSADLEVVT
Chain of NS3/NS4 complexes (P27958 1658-1711): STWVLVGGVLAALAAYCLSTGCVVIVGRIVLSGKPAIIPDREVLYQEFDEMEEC

Consider `CC(=O)N(Cc1ccccc1)[C@H]1CCCCC/C=C\[C@@H]2C[C@@]2(C(=O)NS(=O)(=O)C2(C)CC2)NC(=O)[C@@H]2C[C@@H](Oc3nc4ccccc4s3)CN2C1=O` [Compound 315], for which the IC50 at NS3/NS4 complexes is 10 to 75 nM. In the assay on hepatitis C replicon (setting [1]), the EC50 was greater than 500 nM.
Consider `CC(=O)N(Cc1ccccc1)[C@H]1CCCCC/C=C\[C@@H]2C[C@@]2(C(=O)NS(=O)(=O)C2CC2)NC(=O)[C@@H]2C[C@@H](Oc3nc4ccccc4s3)CN2C1=O` [Compound 316], for which the 50% inhibitory concentration (IC50) at NS3/NS4 complexes is 10 to 75 nM. The EC50 with hepatitis C replicon (read-out: EC50 nM) is greater than 500 nM.
Consider `CS(=O)(=O)N(Cc1ccccc1)[C@H]1CCCCC/C=C\[C@@H]2C[C@@]2(C(=O)NS(=O)(=O)C2CC2)NC(=O)[C@@H]2C[C@@H](Oc3nc4ccccc4s3)CN2C1=O` [Compound 317], for which, on NS3/NS4 complexes, the IC50 was in the range of 75 to 500 nM. The EC50 in the assay on hepatitis C replicon (setting [1]) was greater than 500 nM.
On the same counts, the results for `CCn1c(O[C@@H]2C[C@H]3C(=O)N[C@]4(C(=O)O)C[C@H]4/C=C\CCCCC[C@H](Nc4cc(F)cc(C(F)(F)F)c4)C(=O)N3C2)nc2ccccc21` [Compound 318] are less than 10 nM and greater than 500 nM.
In the case of `CCn1c(O[C@@H]2C[C@H]3C(=O)N[C@]4(C(=O)NS(=O)(=O)C5(C)CC5)C[C@H]4/C=C\CCCCC[C@H](Nc4cc(F)cc(C(F)(F)F)c4)C(=O)N3C2)nc2ccccc21` [Compound 319], the IC50 at NS3/NS4 complexes was less than 10 nM. Besides, the EC50 in the assay on hepatitis C replicon (setting [1]) is less than 10 nM.
In the case of `CC(C)n1c(O[C@@H]2C[C@H]3C(=O)N[C@]4(C(=O)O)C[C@H]4/C=C\CCCCC[C@H](Nc4cc(F)cc(C(F)(F)F)c4)C(=O)N3C2)nc2ccccc21` [Compound 320], on NS3/NS4 complexes, the IC50 is less than 10 nM. In the assay on hepatitis C replicon (setting [1]), the EC50 is less than 10 nM.
In the case of `O=C1N[C@]2(C(=O)O)C[C@H]2/C=C\CCCCC[C@H](Nc2ccc(-c3ccccc3)cc2)C(=O)N2C[C@H](Oc3nc4ccccc4s3)C[C@@H]12` [Compound 325], the IC50 on NS3/NS4 complexes lay in the range of 75 to 500 nM. For the same compound, the EC50 in the assay on hepatitis C replicon (setting [1]) is greater than 500 nM.
For `CC1(S(=O)(=O)NC(=O)[C@@]23C[C@H]2/C=C\CCCCC[C@H](Nc2ccc(-c4ccccc4)cc2)C(=O)N2C[C@H](Oc4nc5ccccc5s4)C[C@H]2C(=O)N3)CC1` [Compound 326], the half-inhibitory concentration (IC50) on NS3/NS4 complexes was less than 10 nM. In the assay on hepatitis C replicon (setting [1]), the EC50 was greater than 500 nM.
For the compound `CC1(S(=O)(=O)NC(=O)[C@@]23C[C@H]2/C=C\CCCCC[C@H](Nc2cc(F)cc(F)c2)C(=O)N2C[C@H](Oc4nc5ccccc5s4)C[C@H]2C(=O)N3)CC1` [Compound 328], the IC50 on NS3/NS4 complexes was less than 10 nM. Further, the 50% effective concentration (EC50) with hepatitis C replicon (setting [1]) fell in the range of 10 to 75 nM.
Consider `CC1(S(=O)(=O)NC(=O)[C@@]23C[C@H]2/C=C\CCCCC[C@H](Nc2ccc(C(F)(F)F)cc2)C(=O)N2C[C@H](Oc4nc5ccccc5s4)C[C@H]2C(=O)N3)CC1` [Compound 330], for which the IC50 at NS3/NS4 complexes was less than 10 nM. In addition, in the assay with hepatitis C replicon (setting [1]), the half-maximal effective concentration (EC50) was 75 to 500 nM.
On to `O=C1N[C@]2(C(=O)O)C[C@H]2/C=C\CCCCC[C@H](Nc2ccc(Cl)cc2)C(=O)N2C[C@H](Oc3nc4ccccc4s3)C[C@@H]12` [Compound 331], for which, at NS3/NS4 complexes, the IC50 lay within 75 to 500 nM. Also, in the assay on hepatitis C replicon (setting [1]), the EC50 is greater than 500 nM.
The corresponding values for `CC1(S(=O)(=O)NC(=O)[C@@]23C[C@H]2/C=C\CCCCC[C@H](Nc2ccc(Cl)cc2)C(=O)N2C[C@H](Oc4nc5ccccc5s4)C[C@H]2C(=O)N3)CC1` [Compound 332] are less than 10 nM and 75 to 500 nM.
Turning to `O=C1N[C@]2(C(=O)O)C[C@H]2/C=C\CCCCC[C@H](Nc2ccc(Cl)c(Cl)c2)C(=O)N2C[C@H](Oc3nc4ccccc4s3)C[C@@H]12` [Compound 333], the IC50 at NS3/NS4 complexes lay in the range of 75 to 500 nM. Also, in the assay on hepatitis C replicon (setting [1]), the EC50 is greater than 500 nM.
The corresponding values for `CC1(S(=O)(=O)NC(=O)[C@@]23C[C@H]2/C=C\CCCCC[C@H](Nc2ccc(Cl)c(Cl)c2)C(=O)N2C[C@H](Oc4nc5ccccc5s4)C[C@H]2C(=O)N3)CC1` [Compound 334] are less than 10 nM and 75 to 500 nM.
The corresponding values for `O=C1N[C@]2(C(=O)O)C[C@H]2/C=C\CCCCC[C@H](Nc2cccc(Cl)c2)C(=O)N2C[C@H](Oc3nc4ccccc4s3)C[C@@H]12` [Compound 335] are 10 to 75 nM and greater than 500 nM.
On the same counts, the results for `CC1(S(=O)(=O)NC(=O)[C@@]23C[C@H]2/C=C\CCCCC[C@H](Nc2cc(C(F)(F)F)cc(C(F)(F)F)c2)C(=O)N2C[C@H](Oc4nc5ccccc5s4)C[C@H]2C(=O)N3)CC1` [Compound 336] are less than 10 nM and 75 to 500 nM.
For the compound `CC1(S(=O)(=O)NC(=O)[C@@]23C[C@H]2/C=C\CCCCC[C@H](Nc2cccc(Cl)c2)C(=O)N2C[C@H](Oc4nc5ccccc5s4)C[C@H]2C(=O)N3)CC1` [Compound 337], the IC50 at NS3/NS4 complexes is less than 10 nM. The EC50 in the assay on hepatitis C replicon (setting [1]) fell in the range of 75 to 500 nM.
As to `O=C1N[C@]2(C(=O)O)C[C@H]2/C=C\CCCCC[C@H](Nc2cc(C(F)(F)F)cc(C(F)(F)F)c2)C(=O)N2C[C@H](Oc3nc4ccccc4s3)C[C@@H]12` [Compound 338], the IC50 at NS3/NS4 complexes was in the range of 75 to 500 nM. The EC50 with hepatitis C replicon (setting [1]) was greater than 500 nM.
As to `CC1(S(=O)(=O)NC(=O)[C@@]23C[C@H]2/C=C\CCCCC[C@H](Nc2ccccc2F)C(=O)N2C[C@H](Oc4nc5ccccc5s4)C[C@H]2C(=O)N3)CC1` [Compound 339], the IC50 at NS3/NS4 complexes was less than 10 nM. In addition, the EC50 in the assay on hepatitis C replicon (setting [1]) was in the range of 75 to 500 nM.
The corresponding values for `CC1(S(=O)(=O)NC(=O)[C@@]23C[C@H]2/C=C\CCCCC[C@H](Nc2cc(Cl)cc(Cl)c2)C(=O)N2C[C@H](Oc4nc5ccccc5s4)C[C@H]2C(=O)N3)CC1` [Compound 340] are less than 10 nM and 10 to 75 nM.
On the same counts, the results for `CC1(S(=O)(=O)NC(=O)[C@@]23C[C@H]2/C=C\CCCCC[C@H](Nc2ccc(F)c(F)c2)C(=O)N2C[C@H](Oc4nc5ccccc5s4)C[C@H]2C(=O)N3)CC1` [Compound 341] are less than 10 nM and 10 to 75 nM.
The corresponding values for `CC1(S(=O)(=O)NC(=O)[C@@]23C[C@H]2/C=C\CCCCC[C@H](Nc2ccc4ccccc4c2)C(=O)N2C[C@H](Oc4nc5ccccc5s4)C[C@H]2C(=O)N3)CC1` [Compound 342] are less than 10 nM and 75 to 500 nM.
On to `CC1(S(=O)(=O)NC(=O)[C@@]23C[C@H]2/C=C\CCCCC[C@H](Nc2cc(F)cc(C(F)(F)F)c2)C(=O)N2C[C@H](Oc4nc5ccccc5s4)C[C@H]2C(=O)N3)CC1` [Compound 345], for which the IC50 on NS3/NS4 complexes is less than 10 nM. Besides, the EC50 with hepatitis C replicon (setting [1]) lay in the range of 10 to 75 nM.
The corresponding values for `CC1(S(=O)(=O)NC(=O)[C@@]23C[C@H]2/C=C\CCCCC[C@H](Nc2cc(F)cc(C(F)(F)F)c2)C(=O)N2C[C@H](Oc4nccc5ccccc45)C[C@H]2C(=O)N3)CC1` [Compound 346] are less than 10 nM and less than 10 nM.
As for `CC1(S(=O)(=O)NC(=O)[C@@]23C[C@H]2/C=C\CCCCC[C@H](Nc2ccc(F)c(C(F)(F)F)c2)C(=O)N2C[C@H](Oc4nccc5ccccc45)C[C@H]2C(=O)N3)CC1` [Compound 347], the concentration for half-maximal inhibition (IC50) at NS3/NS4 complexes is less than 10 nM. Also, the half-maximal effective concentration (EC50) in the assay with hepatitis C replicon (setting [1]) is less than 10 nM.
As for `O=C1N[C@]2(C(=O)NS(=O)(=O)C3CC3)C[C@H]2/C=C\CCCCC[C@H](Nc2ccc(F)cc2)C(=O)N2C[C@H](Oc3nc4ccccc4s3)C[C@@H]12` [Compound 348], the half-inhibitory concentration (IC50) at NS3/NS4 complexes is less than 10 nM. Also, the EC50 in the assay with hepatitis C replicon (setting [1]) was 75 to 500 nM.
The corresponding values for `CC1(S(=O)(=O)NC(=O)[C@@]23C[C@H]2/C=C\CCCCC[C@H](Nc2ccc(F)cc2)C(=O)N2C[C@H](Oc4nc5ccccc5s4)C[C@H]2C(=O)N3)CC1` [Compound 349] are less than 10 nM and 10 to 75 nM.
Consider `Cc1ccc2nc(O[C@@H]3C[C@H]4C(=O)N[C@]5(C(=O)NS(=O)(=O)C6(C)CC6)C[C@H]5/C=C\CCCCC[C@H](Nc5cc(F)cc(C(F)(F)F)c5)C(=O)N4C3)sc2c1` [Compound 350], for which the IC50 on NS3/NS4 complexes was less than 10 nM. Also, in the assay on hepatitis C replicon (setting [1]), the EC50 lay within 75 to 500 nM.
The corresponding values for `CC1(S(=O)(=O)NC(=O)[C@@]23C[C@H]2/C=C\CCCCC[C@H](Nc2cc(F)cc(C(F)(F)F)c2)C(=O)N2C[C@H](Oc4nc5ccc(Cl)cc5s4)C[C@H]2C(=O)N3)CC1` [Compound 351] are less than 10 nM and 75 to 500 nM.
With `CC1(S(=O)(=O)NC(=O)[C@@]23C[C@H]2/C=C\CCCCC[C@H](Nc2cc(F)cc(C(F)(F)F)c2)C(=O)N2C[C@H](Oc4nc5ccc(Br)cc5s4)C[C@H]2C(=O)N3)CC1` [Compound 352], the IC50 at NS3/NS4 complexes is less than 10 nM. Besides, the EC50 in the assay on hepatitis C replicon (setting [1]) was 10 to 75 nM.
The corresponding values for `CC1(S(=O)(=O)NC(=O)[C@@]23C[C@H]2/C=C\CCCCC[C@H](Nc2cc(F)cc(C(F)(F)F)c2)C(=O)N2C[C@H](Oc4nc5ccccc5o4)C[C@H]2C(=O)N3)CC1` [Compound 353] are less than 10 nM and 75 to 500 nM.
On the same counts, the results for `COc1ccc2c(O[C@@H]3C[C@H]4C(=O)N[C@]5(C(=O)O)C[C@H]5/C=C\CCCCC[C@H](Nc5cc(F)cc(C(F)(F)F)c5)C(=O)N4C3)cc(-c3ccccc3)nc2c1` [Compound 354] are less than 10 nM and 75 to 500 nM.
Take `COc1ccc2c(O[C@@H]3C[C@H]4C(=O)N[C@]5(C(=O)NS(=O)(=O)C6(C)CC6)C[C@H]5/C=C\CCCCC[C@H](Nc5cc(F)cc(C(F)(F)F)c5)C(=O)N4C3)cc(-c3ccccc3)nc2c1` [Compound 355]: the half-maximal inhibitory concentration (IC50) on NS3/NS4 complexes was less than 10 nM. Moreover, the EC50 with hepatitis C replicon (setting [1]) is less than 10 nM.
As to `COc1ccc2c(O[C@@H]3C[C@H]4C(=O)N[C@]5(C(=O)NS(=O)(=O)C6CC6)C[C@H]5/C=C\CCCCC[C@H](Nc5ccc(F)c(C(F)(F)F)c5)C(=O)N4C3)cc(-c3ccccc3)nc2c1` [Compound 356], at NS3/NS4 complexes, the IC50 was less than 10 nM. In addition, in the assay with hepatitis C replicon (setting [1]), the half-maximal effective concentration (EC50) is less than 10 nM.
With `COc1ccc2c(O[C@@H]3C[C@H]4C(=O)N[C@]5(C(=O)NS(=O)(=O)C6(C)CC6)C[C@H]5/C=C\CCCCC[C@H](Nc5cc(F)cc(C(F)(F)F)c5)C(=O)N4C3)cc(-c3nc(C(C)C)cs3)nc2c1C` [Compound 358], at NS3/NS4 complexes, the IC50 is less than 10 nM. Moreover, the EC50 in the assay on hepatitis C replicon (setting [1]) was in the range of 10 to 75 nM.
